Entries after “also recorded” stand apart in the source; their conditions may differ. Counter-ions that a name gives are not always drawn. Like-named read-outs stand apart in the source and are kept apart here. Blank lines part the entries; values can stand above or below the molecule they belong to.
Key:
[1] = biological target: T1, soybean lipoxygenase-1 (sLO-1) (Glycine max, UniProt P08170); type: biochemical; details: for effect of LO product on the endogenous substrate mixture ratio ALA:LA: up to 5 μM product addition; for effect of inhibitor on the (kcat/KM)^ALA/(kcat/KM)^LA ratio: inhibitor in excess of its IC50 value
T1 sequence (P08170 1-839): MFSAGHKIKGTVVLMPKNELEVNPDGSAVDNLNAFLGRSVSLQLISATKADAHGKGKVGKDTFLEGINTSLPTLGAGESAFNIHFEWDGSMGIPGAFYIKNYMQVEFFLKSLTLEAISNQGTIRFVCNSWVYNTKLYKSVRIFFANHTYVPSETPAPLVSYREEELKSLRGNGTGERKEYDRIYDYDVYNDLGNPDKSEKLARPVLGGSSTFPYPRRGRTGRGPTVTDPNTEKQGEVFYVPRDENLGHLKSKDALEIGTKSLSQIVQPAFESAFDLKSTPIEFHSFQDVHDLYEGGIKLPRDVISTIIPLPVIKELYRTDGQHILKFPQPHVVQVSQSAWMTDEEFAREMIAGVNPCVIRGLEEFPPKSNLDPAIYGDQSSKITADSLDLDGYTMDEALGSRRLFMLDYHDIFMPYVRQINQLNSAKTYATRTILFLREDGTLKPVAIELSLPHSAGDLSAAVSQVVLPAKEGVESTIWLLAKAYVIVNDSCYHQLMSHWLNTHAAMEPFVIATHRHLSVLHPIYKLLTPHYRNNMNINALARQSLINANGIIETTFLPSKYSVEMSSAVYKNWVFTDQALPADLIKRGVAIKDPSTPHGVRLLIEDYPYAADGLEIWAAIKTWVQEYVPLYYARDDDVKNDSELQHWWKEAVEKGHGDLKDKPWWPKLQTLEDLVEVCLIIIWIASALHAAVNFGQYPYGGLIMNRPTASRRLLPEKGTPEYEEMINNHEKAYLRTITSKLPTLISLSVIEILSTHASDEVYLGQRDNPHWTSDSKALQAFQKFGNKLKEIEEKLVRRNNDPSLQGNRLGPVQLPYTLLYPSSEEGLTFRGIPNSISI

[2] = biological target: T1, soybean lipoxygenase-1 (sLO-1); type: biochemical; details: for effect of LO product on the AA:LA ratio: up to 5 μM product
[3] = test system: 15-hLO-1 (human reticulocyte 15-lipoxygenase); details: cited from earlier work
[4] = biological target: T1, soybean lipoxygenase-1 (sLO-1); assay: IC50 assay of sLO-1 with PS, OS and OA inhibitors, LA as substrate; type: biochemical

SMILES: CCCCC[C@H](O)/C=C/C=C\CCCCCCCC(=O)O [13-HODE, 13-(S)-hydroxyoctadecadienoic acid]
- effect of LO product on the endogenous substrate mixture ratio ALA:LA [1]: no effect
- effect of LO product on the AA:LA ratio [2]: no observable effect; also recorded: did not display any observable effect
- (kcat/KM)^AA/(kcat/KM)^LA ratio of 15-hLO-1 ([3]; 5 μM 13-HODE, increase from 1.4): 2.9

SMILES: CCCCC/C=C\C[C@H](O)/C=C/C=C\C/C=C\CCCC(=O)O [12-HETE, 12-(S)-hydroxyeicosatetraenoic acid]
- effect of LO product on the endogenous substrate mixture ratio ALA:LA [1]: no effect
- (kcat/KM)^AA/(kcat/KM)^LA ratio ([2]; addition of 12-HETE (5 μM), control 1.8 ± 0.2): 2.4 ± 0.2
- maximum (kcat/KM)^AA/(kcat/KM)^LA ratio at saturating conditions ([2]; calculated from saturation curve fit): 5.1 ± 0.3
- binding affinity to sLO-1 weaker than to 15-hLO-1 ([2]; ratio of half saturation points, sLO-1 vs 15-hLO-1): ~30 fold
- effect on sLO-1 catalysis ([2]; saturating amounts at the allosteric site, both AA and LA as substrate): inhibit sLO-1
- (kcat/KM)^AA/(kcat/KM)^LA ratio of 15-hLO-1 ([3]; with 12-HETE, increase from 1.8): 2.7

SMILES: CC/C=C\C[C@H](O)/C=C/C=C\CCCCCCCC(=O)O [13-HOTrE]
- effect of LO product on the endogenous substrate mixture ratio ALA:LA [1]: no effect
- effect of LO product on the AA:LA ratio [2]: no observable effect

SMILES: CC/C=C\C/C=C\C/C=C\CCCCCCCC(=O)O [ALA, α-linolenic acid]
- (kcat/KM)^ALA/(kcat/KM)^LA ratio (substrate specificity, no effector) ([1]; ALA:LA 1:1, 1 μM total substrate, 100 mM Borate pH 9.2, 22 °C): 0.75 ± 0.5

Further lines, with some results ahead:

- IC50 [4]: 11 ± 3 µM
- effect of inhibitor on the AA:LA substrate ratio ([2]; competitive inhibitor, at IC50 and 5-fold IC50): no effect
SMILES: CCCCCCCC/C=C\CCCCCCCC(=O)O [OA, oleic acid]
- effect of inhibitor on the (kcat/KM)^ALA/(kcat/KM)^LA ratio [1]: none of the inhibitors, OS, OA, or PS, affected

- (kcat/KM)^AA/(kcat/KM)^LA ratio (substrate specificity, no effector) ([2]; AA:LA 1:1, 1 μM total substrate, 100 mM Borate pH 9.2, 22 °C): 1.8 ± 0.2
SMILES: CCCCC/C=C\C/C=C\C/C=C\C/C=C\CCCC(=O)O [AA, arachidonic acid]

- IC50 [4]: 1 ± 0.1 µM
- AC50 [2]: 1500 ± 300 nM
SMILES: CCCCCCCC/C=C\CCCCCCCCOS(=O)(=O)O [OS, oleyl sulfate]
- effect of inhibitor on the (kcat/KM)^ALA/(kcat/KM)^LA ratio [1]: none of the inhibitors, OS, OA, or PS, affected

Source: paper PMC2737062 (Bioorganic & medicinal chemistry, 2009)
